EC50 data for 26 compounds are collected here from US20230002334A1, “TRPM8 MODULATORS” (Givaudan SA, priority 2019, published 2023).

For this test, the target named is T1, hTRPM8 (Homo sapiens, UniProt Q7Z2W7).
T1 construct: expressed in transfected cells
T1 sequence (Q7Z2W7 whole entry): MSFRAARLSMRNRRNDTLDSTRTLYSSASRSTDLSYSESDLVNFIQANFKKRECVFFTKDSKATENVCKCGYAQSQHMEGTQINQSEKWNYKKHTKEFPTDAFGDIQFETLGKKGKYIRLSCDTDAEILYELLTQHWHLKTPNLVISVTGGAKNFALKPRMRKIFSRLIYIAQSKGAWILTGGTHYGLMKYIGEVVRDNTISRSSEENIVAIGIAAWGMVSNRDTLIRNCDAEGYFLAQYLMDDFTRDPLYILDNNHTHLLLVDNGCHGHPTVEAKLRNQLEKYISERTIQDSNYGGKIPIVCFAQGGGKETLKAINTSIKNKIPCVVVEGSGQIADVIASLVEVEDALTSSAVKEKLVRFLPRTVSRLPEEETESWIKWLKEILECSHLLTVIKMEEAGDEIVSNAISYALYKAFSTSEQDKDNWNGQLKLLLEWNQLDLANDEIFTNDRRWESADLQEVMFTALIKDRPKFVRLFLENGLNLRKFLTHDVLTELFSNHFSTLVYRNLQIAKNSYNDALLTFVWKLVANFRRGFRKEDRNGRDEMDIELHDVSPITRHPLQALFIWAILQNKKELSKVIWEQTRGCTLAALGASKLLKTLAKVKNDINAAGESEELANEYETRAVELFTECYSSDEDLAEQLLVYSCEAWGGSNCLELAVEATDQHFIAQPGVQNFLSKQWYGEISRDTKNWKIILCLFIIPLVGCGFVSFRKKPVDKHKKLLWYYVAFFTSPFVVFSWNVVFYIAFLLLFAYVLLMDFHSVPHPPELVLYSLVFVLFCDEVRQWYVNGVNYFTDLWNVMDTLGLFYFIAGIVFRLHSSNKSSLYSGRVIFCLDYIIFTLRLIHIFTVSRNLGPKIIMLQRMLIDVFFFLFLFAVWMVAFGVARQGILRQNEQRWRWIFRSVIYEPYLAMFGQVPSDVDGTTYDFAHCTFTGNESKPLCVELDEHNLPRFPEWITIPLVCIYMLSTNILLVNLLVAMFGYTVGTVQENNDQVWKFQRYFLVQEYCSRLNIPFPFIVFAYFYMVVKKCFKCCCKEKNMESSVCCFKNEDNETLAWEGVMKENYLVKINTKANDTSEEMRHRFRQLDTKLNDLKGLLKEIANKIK
The test can be described thus: Assay on TRPM8 modulators: calcium imaging (Fluo-4, Flexstation) in HEK293 cell line stably expressing hTRPM8. The class given is cell-based. The note with it: HEK293 cells stably expressing hTRPM8, calcium influx, sigmoidal dose-response fit; read-out: EC50. On the procedure: A HEK293 cell line stably expressing hTRPM8 was generated according to Klein et al., (Chem. Senses 36: 649-658, 2011) and receptor activation was monitored by calcium imaging in a Flexstation. For Ca-imaging assays of TRPM8 channel activation, cells were seeded on day 0 at a density of 12000 cells per well in Dulbecco's modified Eagle medium (DMEM) containing 9% foetal bovine serum in black, clear bottom 96-well plates that had been coated with 0.001% polyethyleneimine (molecular weight=60 000, Acros Organics). On day 2, agonists were evaluated via calcium imaging using Fluo-4. Briefly, growth medium was discarded, and the cells were incubated in the dark for 1 h at 37° C. in 50 μL loading buffer consisting of 2.7 μM Fluo-4 AM (Invitrogen) and […] probenecid (Sigma-Aldrich) in DMEM (without serum). After incubation, the plates were washed five times with 100 μL of assay buffer (in mM: 130 NaCl, 5 KCl, 10 HEPES, 2 CaCl2, and 10 glucose, pH7.4.) and further incubated in the dark at room temperature for 30 min. The cells were then washed five times with 100 μL assay buffer and then calcium influx to serial dilutions of inventive compounds were measured in a Flexstation 3 (Molecular Devices). Receptor activation was initiated following addition of 20 μl of a 10-fold concentrated ligand stock solution, which is also prepared in assay buffer. Fluorescence was continuously monitored for 15 seconds prior to ligand addition and for 105 seconds after ligand addition, for a total of 120 seconds. Maximal receptor activation in relation to solvent control and relative to 31.6 μM menthol is determined. Data from serial dilutions were processed with a KNIME workflow to fit a sigmoidal dose-response curve and to extrapolate EC50 values.
Take `CCC1CC(CC)C2C(C1)C(C)(C)ON2C` (centres unmarked) [Compound 19, 5,7-diethyl-1,3,3-trimethyloctahydrobenzo[c]isoxazole]: the half-maximal effective concentration (EC50) – broadly, the concentration needed to bring the measured effect to its halfway point – was in the range of 1000 to 35000 nM.
Take `COc1ccc(C#N)cc1[C@H]1C[C@@H]2[C@@H]([C@@H](C)C1)N(C(C)C)OC2(C)C` (racemic) [Compound 128, rac-3-((3aR,5R,7S,7aR)-1-isopropyl-3,3,7-trimethyloctahydrobenzo[c]isoxazol-5-yl)-4-methoxybenzonitrile]: the concentration giving a half-maximal response (EC50) is below 50 nM.
As for `COc1ccc(C#N)cc1[C@]1(C)C[C@@H](C)[C@@H]2[C@@H](C1)C(C)(C)ON2C` (racemic) [Compound 132, rac-4-methoxy-3-((3aR,5R,7R,7aR)-1,3,3,5,7-pentamethyloctahydrobenzo[c]isoxazol-5-yl)benzonitrile], the figure is 300 to 1000 nM; as for `COc1ccccc1[C@@]1(C)C[C@@H]2[C@@H]([C@@H](C)C1)N(C(C)C)OC2(C)C` (racemic) [Compound 65, rac-(3aR,5R,7S,7aR)-1-isopropyl-5-(2-methoxyphenyl)-3,3,5,7-tetramethyloctahydrobenzo[c]isoxazole], 50 to 300 nM.
As for `C[C@H]1C[C@@](C)(c2cc(F)ccc2F)C[C@@H]2[C@@H]1N(C)OC2(C)C` (racemic) [Compound 73, rac-(3aR,5R,7S,7aR)-5-(2,5-difluorophenyl)-1,3,3,5,7-pentamethyloctahydrobenzo[c]isoxazole], the figure is 50 to 300 nM; as for `CC(C)CC[C@@]1(C)C[C@@H]2[C@@H]([C@@H](C)C1)N(C(C)C)OC2(C)C` (racemic) [Compound 112, rac-(3aR,5R,S,7aR)-5-isopentyl-1-isopropyl-3,3,5,7-tetramethyloctahydrobenzo[c]isoxazole], 50 to 300 nM; as for `Cc1ccc([C@@]2(C)C[C@@H]3[C@@H]([C@@H](C)C2)N(C)OC3(C)C)s1` (racemic) [Compound 41, rac-(3aR,5R,7S,7aR)-1,3,3,5,7-pentamethyl-5-(5-methylthiophen-2-yl)octahydrobenzo[c]isoxazole], 300 to 1000 nM.
As for `CC1CCC2C(C1)N(C)OC2(C)C` (centres unmarked) [Compound 6, 1,3,3,6-tetramethyloctahydrobenzo[c]isoxazole], the figure is 1000 to 35000 nM; as for `CC(C)=CCC1(C)CC(C)C2C(C1)C(C)(C)ON2C(C)C` (centres unmarked) [Compound 10, 1-isopropyl-3,3,5,7-tetramethyl-5-(3-methylbut-2-en-1-yl)octahydrobenzo[c]isoxazole], 300 to 1000 nM.
For the compound `Cc1ccc([C@@]2(C)C[C@@H]3[C@@H]([C@@H](C)C2)N(C)OC3(C)C)c(C)c1` (racemic) [Compound 71, rac-(3aR,5R,7S,7aR)-5-(2,4-dimethylphenyl)-1,3,3,5,7-pentamethyloctahydrobenzo[c]isoxazole], the EC50 was 50 to 300 nM.
On to `CC1CC(C)C2C(C1)C(C)(C)ON2C(C)C` (centres unmarked) [Compound 11, 1-isopropyl-3,3,5,7-tetramethyloctahydrobenzo[c]isoxazol-1-ium chloride], for which the EC50 was in the range of 300 to 1000 nM.
The same measure for `CC(C)c1cccc([C@@]2(C)C[C@@H]3[C@@H]([C@@H](C)C2)N(C)OC3(C)C)c1` (racemic) [Compound 93, rac-(3aR,5R,7S,7aR)-5-(3-isopropylphenyl)-1,3,3,5,7-pentamethyloctahydrobenzo[c]isoxazole]: 1000 to 35000 nM; for `C[C@H]1C[C@@](C)(c2ccc(Cl)c(C#N)c2)C[C@@H]2[C@@H]1N(C)OC2(C)C` (racemic) [Compound 121, rac-2-chloro-5-((3aR,5R,7S,7aR)-1,3,3,5,7-pentamethyloctahydrobenzo[c]isoxazol-5-yl)benzonitrile]: below 50 nM; for `Cc1ccc(C)c([C@H]2C[C@@H]3[C@@H]([C@@H](C)C2)N(C)OC3(C)C)c1` (racemic) [Compound 75, rac-(3aR,5R,7S,7aR)-5-(2,5-dimethylphenyl)-1,3,3,7-tetramethyloctahydrobenzo[c]isoxazole]: 300 to 1000 nM.
Turning to `CC[C@@H]1CC[C@@H]2[C@@H](C1)C(C)(C)ON2C(C)C` (racemic) [Compound 30, rac-(3aR,5R,7aR)-5-ethyl-1-isopropyl-3,3-dimethyloctahydrobenzo[c]isoxazole], the concentration for a half-maximal effect (EC50) was in the range of 1000 to 35000 nM.
`COc1cc(F)ccc1[C@@]1(C)C[C@@H]2[C@@H]([C@@H](C)C1)N(C)OC2(C)C` (racemic) [Compound 99, rac-(3aR,5R,7S,7aR)-5-(4-fluoro-2-methoxyphenyl)-1,3,3,5,7-pentamethyloctahydrobenzo[c]isoxazole]: the half-maximal effective concentration (EC50) was below 50 nM.
As for `Cc1c(Cl)cccc1[C@H]1C[C@@H]2[C@@H]([C@@H](C)C1)N(C(C)C)OC2(C)C` (racemic) [Compound 90, rac-(3aR,5R,7S,7aR)-5-(3-chloro-2-methylphenyl)-1-isopropyl-3,3,7-trimethyloctahydrobenzo[c]isoxazole], the figure is 50 to 300 nM; as for `CC(C)N1OC(C)(C)[C@@H]2C[C@](C)(c3cccc(C#N)c3)C[C@H](C)[C@H]21` (racemic) [Compound 127, rac-3-((3aR,5R,7S,7aR)-1-isopropyl-3,3,5,7-tetramethyloctahydrobenzo[c]isoxazol-5-yl)benzonitrile], below 50 nM.
The same measure for `COc1cccc(C2(C)CC(C)C3C(C2)C(C)(C)ON3C)n1` (centres unmarked) [Compound 18, 5-(6-methoxypyridin-2-yl)-1,3,3,5,7-pentamethyloctahydrobenzo[c]isoxazole]: 300 to 1000 nM; for `CSc1ccccc1[C@@]1(C)C[C@@H]2[C@@H]([C@@H](C)C1)N(C)OC2(C)C` (racemic) [Compound 37, rac-(3aR,5R,7S,7aR)-1,3,3,5,7-pentamethyl-5-(2-(methylthio)phenyl)octahydrobenzo[c]isoxazole]: 50 to 300 nM.
With `Cc1ccc([C@@]2(C)C[C@@H]3[C@@H]([C@@H](C)C2)N(C)OC3(C)C)cc1C#N` (racemic) [Compound 123, rac-2-methyl-5-((3aR,5R,7S,7aR)-1,3,3,5,7-pentamethyloctahydrobenzo[c]isoxazol-5-yl)benzonitrile], the 50% effective concentration (EC50) lay in the range of 50 to 300 nM.
Regarding `Cc1ccc(F)cc1[C@@]1(C)C[C@@H]2[C@@H]([C@@H](C)C1)N(C)OC2(C)C` (racemic) [Compound 107, rac-(3aR,5R,7S,7aR)-5-(5-fluoro-2-methylphenyl)-1,3,3,5,7-pentamethyloctahydrobenzo[c]isoxazole], the EC50 is below 50 nM.
As to `CC1CC(C)[C@@H]2[C@@H](C1C)C(C)(C)ON2C` (mixture of isomers) [Compound 114, rac-(3aR,7aR)-1,3,3,4,5,7-hexamethyloctahydrobenzo[c]isoxazole], the half-maximal effective concentration (EC50) is 1000 to 35000 nM.
The same measure for `Cc1ccc(C#N)cc1[C@H]1C[C@@H]2[C@@H]([C@@H](C)C1)N(C)OC2(C)C` (racemic) [Compound 136, rac-4-methyl-3-((3aR,5R,7S,7aR)-1,3,3,7-tetramethyloctahydrobenzo[c]isoxazol-5-yl)benzonitrile]: 50 to 300 nM; for `Cc1cc(F)ccc1[C@]1(C)C[C@@H](C)[C@@H]2[C@@H](C1)C(C)(C)ON2C` (racemic) [Compound 35, rac-(3aR,5R,7R,7aR)-5-(4-fluoro-2-methylphenyl)-1,3,3,5,7-pentamethyloctahydrobenzo[c]isoxazole]: 1000 to 35000 nM.
As for `CCN1OC(C)(C)[C@@H]2C[C@H](C)C[C@H](C)[C@H]21` (racemic) [Compound 56, rac-(3aR,5R,7S,7aR)-1-ethyl-3,3,5,7-tetramethyloctahydrobenzo[c]isoxazole], the figure is 1000 to 35000 nM.
